Results from patent publication US20230357134A1, “AGENTS FOR USE IN THE TREATMENT OF AMYLOIDOSIS” (UCL BUSINESS LTD, priority 2020, published 2023).
pIC50: −log10 of the molar value.

How the values were obtained:
isolated wild type TTR = biological target: T1, isolated wild type TTR (Homo sapiens, UniProt P02766); assay: Displacement of 125I-T4 from isolated wild type TTR in buffer; conditions: concentration of ligand reducing binding of 125I-T4 by TTR by 50%, 125 nM TTR, pH 8.0, overnight 4° C., mean of at least 3 replicates; for pIC50: read-out: D50 buffer
T1 construct: the non-covalently associated protomers, of mass 13,761, each contain 127 residues; His6 (N); TEV cleavage site (N); made in house; host or cells: E. coli BL21 (DE3)
Description: 3. Evaluation of Ligand Activity Based on Capacity to Displace ^125I-Thyroxine (T4) from TTR in Buffer/Human Plasma 3.1 Displacement of ^125I-T4 from Isolated Wild Type TR.
Competition of ligands with T4 for binding by TTR was assayed quantitatively by a previously described procedure (Kolstoe et al., 2010). Briefly, a solution of 125 nM TTR in 0.1 M Tris-HCl, 0.1 M NaCl and 0.001 M EDTA buffer, pH 8.0, was incubated overnight at 4° C. in the presence of 1.07 nM ^125I T4 (1,200 μCi/μg, 200 μCi/ml, Perkin Elmer) and increasing concentrations of inhibitor (0-5 μM) in 40 μl final volume. ^125I T4 bound by TTR was separated from unbound T4 by gel filtration chromatography using Micro Bio Spin 6 columns (Bio-Rad) previously equilibrated with the reaction buffer containing 1% w/v BSA. After counting with a Wizard2 gamma counter (Perkin-Elmer) for 60 s, percentage binding was plotted against the logarithm of the inhibitor concentration, and D50 (concentration of ligand reducing the binding of T4 by TTR by 50%) was determined using a four parameters dose-response curve with GraphPad Prism 5 (Table 1).

[1] = biological target: T2, TTR in whole human plasma (Homo sapiens, UniProt P02766); assay: Displacement of 125I-T4 from TTR in normal human plasma; assay type: binding; conditions: wild type TTR, 30 min 37° C. with ligand, immunoprecipitation, mean of at least 3 replicates; for pIC50: read-out: D50 plasma
T2 construct: TTR in whole plasma, from individuals homozygous for wild type TTR; from tissue; host or cells: whole human plasma
Description: 3.2 Displacement of ^125-T4 from TTR in Normal Human Plasma.
The displacement of ^125I-T4 from TTR in whole plasma, from individuals homozygous for wild type TTR, was studied by incubating plasma with each ligand at increasing concentrations for 30 min at 37° C., further incubation with […] followed by measurement of the radioactivity in the immunoprecipitate obtained with anti-TTR antibodies. […] Percentage binding was plotted against the logarithm of the inhibitor concentration, and D50 (concentration of ligand reducing the binding of T4 by TTR by 50%) was determined using a four parameter dose-response curve with GraphPad Prism 5 (Table 1).

[2] = biological target: T3, recombinant Val122Ile TTR (Homo sapiens, UniProt P02766, V142I); assay: Mechano-enzymatic fibrillogenesis, TTR aggregation by turbidity at 400 nm; assay type: biochemical; conditions: equimolar ligand, Val122Ile TTR 9 μM, trypsin, 96 h, 100 % = protein without ligand, mean (SD)
T3 construct: the non-covalently associated protomers, of mass 13,761, each contain 127 residues; His6 (N); TEV cleavage site (N); made in house; host or cells: E. coli BL21 (DE3)
Description: (§1) Briefly, fibrillogenesis of recombinant Val122Ile TTR at 0.5 mg/ml (9 μM) in PBS, pH 7.4 was carried out in glass vials stirred at 1,400 rpm (IKA magnetic stirrer) and 37° C. in the presence and in the absence of trypsin (5 ng/μl). […] Each ligand was tested at 4 different concentrations (4.5, 9, 18, 36 μM respectively) corresponding to the following drug/TTR molar ratios of 0.5:1, 1:1, 2:1 and 4:1. Several dilutions of the drug stock solutions were made in order to add the same volume of DMSO to each sample. Control samples without drug were added with the same volume of DMSO only. To allow complete binding of ligand by TTR each sample was incubated for 30 min at 37° C. before addition of trypsin. Spectrophotometric turbidity at 400 nm was used to monitor fibril formation over time until it reached a plateau at 96 h. Aggregation of TTR in the presence of equimolar ligand concentrations was quantified as spectrophotometric turbidity at 400 nm as a proportion of 100% for aggregation of the protein in the absence of ligands (Table 2).

[3] = biological target: T3, recombinant Val122Ile TTR; assay: Mechano-enzymatic fibrillogenesis, TTR amyloid by ThT emission fluorescence; assay type: biochemical; conditions: equimolar ligand, 96 h pellets, normalized to 100 % without ligand, mean (SD)
Description: as §1
At the end of the 96 h aggregation, pellets were harvested from each protein sample by 20 min centrifugation at 11,600 g, thoroughly rinsed with PBS to remove non-bound ligand, resuspended with 100 μl PBS, pH 7.4 containing 10 μM ThT in Costar 96-well black-wall plates. Bottom fluorescence values (excitation 440 nm, emission 480 nm) were recorded using a BMG LABTECH FLUostar Omega plate reader. Each value was normalized to the ThT signal of the TTR sample without ligand (Table 2)

SMILES	pIC50 (isolated wild type TTR)	pIC50 [1]	% Aggregation (Turbidity method) [2]	% Aggregation (Fluorescence method) [3]	D50 plasma [1]	% Aggregation (Turbidity method) ([2]; listed as T-663 (B3))	% Aggregation (Fluorescence method) ([3]; listed as T-663 (B3))	D50 buffer (isolated wild type TTR)
O=C(O)CCc1cc(Cl)c(OCC[C@@H](O)[C@H](O)CCOc2ccc(-c3nc4ccc(C(=O)O)cc4o3)cc2Cl)c(Cl)c1 [Compound B17, 2-[4-[(3R,4R)-6-[4-(2-carboxyethyl)-2,6-dichloro-phenoxy]-3,4-dihydroxy-hexoxy]-3-chloro-phenyl]-1,3-benzoxazole-6-carboxylic acid]	7.00	4.76	4.52 (1.08) %	3.86 (2.29) %				
Cc1n[nH]c(COCCCCOCCOc2c(Cl)cc(CCC(=O)O)cc2Cl)c1CCCOc1cc(C(=O)O)ccc1F [Compound B10, 3-[3-[5-[4-[2-[4-(2-carboxyethyl)-2,6-dichloro-phenoxy]ethoxy]butoxymethyl]-3-methyl-1H-pyrazol-4-yl]propoxy]-4-fluoro-benzoic acid]	5.25		14.88 (nd) %	16.6 (nd) %	no binding			
O=C(O)CCc1ccc(OCC[C@@H](O)[C@H](O)CCOc2ccc(Nc3ccccc3C(=O)O)cc2Cl)c(Cl)c1 [Compound B22, 2-[4-[(3R,4R)-6-[4-(2-carboxyethyl)-2-chloro-phenoxy]-3,4-dihydroxy-hexoxy]-3-chloro-anilino]benzoic acid]	7.15	5.19	6.43 (2.12) %	15.5 (3.25) %				
O=C(O)CCc1cc(Cl)c(OCCCOCCOc2c(Cl)cc(Nc3cnncc3C(=O)O)cc2Cl)c(Cl)c1 [Compound B24, 5-[4-[2-[3-[4-(2-carboxyethyl)-2,6-dichloro-phenoxy]propoxy]ethoxy]-3,5-dichloro-anilino]pyridazine-4-carboxylic acid]	6.85	5.12	6.60 (2.40) %	10.6 (10.5) %				
O=C(O)CCc1cc(Cl)c(OCC/C=C/CCOc2c(Cl)cc(Nc3ccccc3C(=O)O)cc2Cl)c(Cl)c1 [Compound B14, 2-[4-[(E)-6-[4-(2-carboxyethyl)-2,6-dichloro-phenoxy]hex-3-enoxy]-3,5-dichloro-anilino]benzoic acid]			5.73 (0.50) %	12.6 (3.17) %				
O=C(O)CCc1ccc(OCCCOCCCOc2c(Cl)cc(-c3nc4ccc(C(=O)O)cc4o3)cc2Cl)c(Cl)c1 [Compound B19, 2-[4-[3-[3-[4-(2-carboxyethyl)-2-chloro-phenoxy]propoxy]propoxy]-3,5-dichloro-phenyl]-1,3-benzoxazole-6-carboxylic acid]	6.80	< 4.00	3.99 (0.928) %	7.27 (1.17) %				
O=C(O)CCc1cc(Cl)c(OCC[C@H](O)[C@@H](O)CCOc2c(Cl)cc(Nc3ncccc3C(=O)O)cc2Cl)c(Cl)c1 (stereo in doubt) [Compound B3A, 2-[4-[(3S,4S)-6-[4-(2-carboxyethyl)-2,6-dichloro-phenoxy]-3,4-dihydroxy-hexoxy]-3,5-dichloro-anilino]pyridine-3-carboxylicacid]			5.76 (2.32) %	8.63 (5.17) %				
Cc1n[nH]c(COCCOCCCOc2c(Cl)cc(CCC(=O)O)cc2Cl)c1CCCOc1cc(C(=O)O)ccc1F [Compound B11, 3-[3-[5-[2-[3-[4-(2-carboxyethyl)-2,6-dichloro-phenoxy]propoxy]ethoxymethyl]-3-methyl-1H-pyrazol-4-yl]propoxy]-4-fluoro-benzoic acid]	6.30				no binding			
O=C(O)CCc1cc(Cl)c(OCCCOCCOc2c(Cl)cc(-c3nc4ccc(C(=O)O)cc4o3)cc2Cl)c(Cl)c1 [Compound B28, 2-[4-[2-[3-[4-(2-carboxyethyl)-2,6-dichloro-phenoxy]propoxy]ethoxy]-3,5-dichloro-phenyl]-1,3-benzoxazole-6-carboxylic acid]	7.10	4.70	9.30 (4.32) %	24.5 (8.90) %				
O=C(O)CCc1ccc(OCCCOCCCOc2ccc(-c3nc4ccc(C(=O)O)cc4o3)cc2Cl)c(Cl)c1 [Compound B18, 2-[4-[3-[3-[4-(2-carboxyethyl)-2-chloro-phenoxy]propoxy]propoxy]-3-chloro-phenyl]-1,3-benzoxazole-6-carboxylic acid]	6.68	< 4.00	3.31 (0.68) %	2.45 (1.39) %				
O=C(O)CCc1ccc(OCC[C@@H](O)[C@H](O)CCOc2c(Cl)cc(Nc3ccccc3C(=O)O)cc2Cl)c(Cl)c1 [Compound B21, 2-[4-[6-[4-(2-carboxyethyl)-2-chloro-phenoxy]-3,4-dihydroxy-hexoxy]-3,5-dichloro-anilino]benzoic acid]	7.15	5.39	6.43 (3.09) %	8.31 (6.09) %				
O=C(O)CCc1cc(Cl)c(OCCOCCCOc2c(Cl)cc(-c3nc4ccc(C(=O)O)cc4o3)cc2Cl)c(Cl)c1 [Compound B29, 2-[4-[3-[2-[4-(2-carboxyethyl)-2,6-dichloro-phenoxy]ethoxy]propoxy]-3,5-dichloro-phenyl]-1,3-benzoxazole-6-carboxylic acid]	7.10	5.44	7.62 (3.39) %	19.2 (13.0) %				
O=C(O)CCc1cc(Cl)c(OCC[C@@H](O)[C@H](O)CCOc2c(Cl)cc(Nc3ncccc3C(=O)O)cc2Cl)c(Cl)c1 [Compound B3, 2-[4-[(3R,4R)-6-[4-(2-carboxyethyl)-2,6-dichloro-phenoxy]-3,4-dihydroxy-hexoxy]-3,5-dichloro-anilino]pyridine-3-carboxylic acid]	7.15	5.77				5.11 (1.58) %	4.49 (2.08) %	
O=C(O)CCc1cc(Cl)c(OCC/C=C/CCOc2c(Cl)cc(Nc3ncccc3C(=O)O)cc2Cl)c(Cl)c1 [Compound B13, (E)-2-((4-((6-(4-(2-carboxyethyl)-2,6-dichlorophenoxy)hex-3-en-1-yl)oxy)-3,5-dichlorophenyl)amino)nicotinic acid]			5.31 (0.62) %	9.76 (4.50) %				
O=C(O)Cc1cc(Cl)c(OCCCOCCOc2c(Cl)cc(CC(=O)O)cc2Cl)c(Cl)c1 [Compound B33, reference compound]				75 (30) %				No binding
